Experiment [1] deals with DNA synthesis in S. aureus ATCC 29213. Kind of experiment: Macromolecular synthesis assay: DNA synthesis ([3H] thymidine). In kind it is cell-based, Staphylococcus aureus. The note with it: control; 8 fold the MIC (0.5 μg/mL). As to the method:
Cells were grown at 35° C. overnight on Trypticase Soy agar. A colony from the plate was used to inoculate 10 ml of Mueller Hinton broth II (MHBII), and the culture was grown to early exponential growth phase (OD600==0.2 to 0.3) while incubating in a shaker at 35° C. and 200 rpm.
When cells reached early exponential phase, 100 μL of culture was added to triplicate wells containing various concentrations of test compound or control antibiotics (5 μL) at 20× the final concentration in 100% DMSO. A 5% DMSO treated culture served as the “no drug” control for all experiments. Cells were added in MHBII at 105% to account for the volume of drug added to each reaction or in M9 minimal medium for protein synthesis reactions. Following 15 min incubation at room temperature, either [^3H] thymidine (DNA synthesis), [^3H] uridine (RNA synthesis) or [^3H] leucine (protein synthesis) was added at 0.5-1.0 μCi per reaction, depending on the experiment. Reactions were allowed to proceed at room temperature for 15-30 min and then stopped by adding 12 μL of cold 5% trichloroacetic acid (TCA) or 5% TCA/2% casamino acids (protein synthesis only). Reactions were incubated on ice for 30 min and the TCA precipitated material was collected on a 25 mm GF/A filter. After washing three times with 5 ml of cold 5% TCA, the filters were rinsed two times with 5 mL 100% ethanol, allowed to dry, and then counted using a Beckman LS3801 liquid scintillation counter.

Experiment [2] has as its system Staphylococcus aureus T3-129 / Staphylococcus spp. MK1. Kind of experiment: Synergy studies, checkerboard method (FIC index). It is filed as cell-based. The note with it: Staphylococcus spp. Strain MK1.
For experiment [3], the system named is Gram-negative bacteria (E. coli and Pseudomonas aeruginosa). In words: Testing of NCL812 analogues, Gram-negative antibacterial activity. It is filed as cell-based. The following applies: MIC testing. As to the method: Minimum inhibitory concentrations (μg/ml) were determined using the broth microdilution method recommended by the Clinical and Laboratory Standards Institute (CLSI). MIC breakpoints were determined by visual assessment and then confirmed using an ELISA plate reader, measuring absorbance levels at 600 nm. Bacterial growth (turbidity) in the wells with antimicrobial was compared with the amount of growth (turbidity) in the growth-control well (containing no antimicrobial). All isolates were tested in duplicate, if there was a difference of greater than one two-fold dilution in the results, the test was repeated a third time. The purity of the isolates was closely monitored during testing by subculturing the prepared bacterial inoculum onto SBA (sheep blood agar). The MICs of the control strains for the antimicrobial ampicillin were determined for each testing run as an internal quality control. The MIC50, […] and MIC range (minimum and maximum) were calculated for each of the bacterial groups.
MICs were determined against two MRSA strains, two VRE strains and one strain each of E. coli and Pseudomonas aeruginosa.

Experiment [4] has as its system MRSA. Kind of experiment: Broth microdilution MIC, Example 7 (NCL812 and analogues). It is filed as cell-based, Staphylococcus aureus. In a few lines: (§1)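 Turbidity read visually and then at 600 nm defined the MIC (μg/ml), comparing drug-containing wells with a growth-control well lacking antimicrobial. Testing followed the CLSI broth microdilution method, in duplicate, using two strains per organism group.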
Background: Dilution methods test growth across graded concentrations, often in twofold steps.

Experiment [5] deals with VRE. The experiment is described as above. In kind it is cell-based, Enterococcus spp. A digest of the protocol:
as §1

Experiment [6] is described as follows: Bioassay ranking of the analogues tested. The following applies: M + R (MRSA and VRE combined).

SMILES strings stand for the structures. Values joined by “and” are separate entries in the source; they are usually repeats but may differ in a detail not shown here. Equal values may be shown once.

In the case of `O=C(O)c1cn(C2CC2)c2cc(N3CCNCC3)c(F)cc2c1=O` [Ciprofloxacin], the “inhibition of DNA synthesis” value in experiment [1] is given as “approximately 51%”. For the same molecule, the FICI in experiment [2] (FIC index of antibiotic with NCL812) is 0.75 and 0.525 and 0.625 and 0.562. Moreover, the “Antibiotic MIC Alone” value in experiment [2] (antibiotic alone) was 0.125 µg/mL and 0.25 µg/mL. In addition, in experiment [2] (antibiotic with NCL812), the “Result (interaction with NCL812)” value was “NE (No effect (NE) was defined as 0.5<FICI<4)”.

Regarding `CCCC/C(=N\NC(=N)N)c1ccc(Cl)cc1.Cl` [NCL188, (E)-2-(1-(4-chlorophenyl)pentylidene)hydrazine-1-carboximidamide Hydrochloride], the “level of Gram-negative antibacterial activity among analogues” value in experiment [3] was “highest level of Gram-negative antibacterial activity”. Besides, the “activity against MRSA among analogues” value in experiment [4] (MIC testing, two MRSA strains) was “greatest activity”. Also, the MIC in experiment [4] (Staphylococcus aureus, MRSA, bioassay ranking, MRSA, read-out: MRSA) was found to be 16 µg/mL; in experiment [5] (Enterococcus, VRE, bioassay ranking, VRE, read-out: VRE) it was 16 µg/mL. For the same molecule, the “activity against VRE among analogues” value in experiment [5] (MIC testing, two VRE strains) is listed as “greatest activity”. Moreover, the “M + R” value in experiment [6] is 16 µg/mL.
